The results in this text go back to patent US12227496B2 (BRISTOL-MYERS SQUIBB COMPANY, priority 2019, dated 2025).

Molecules are shown by their SMILES.

The assay concerns the target T1, human FXR (Homo sapiens, UniProt Q96RI1).
T1 construct: expressed in transfected cells; host or cells: HEK293 cells stably carrying a 5xGal4-response-element firefly luciferase reporter, transiently transfected with pcDNA3.1-Gal4-FXR
T1 sequence (Q96RI1 262-486 limits assumed): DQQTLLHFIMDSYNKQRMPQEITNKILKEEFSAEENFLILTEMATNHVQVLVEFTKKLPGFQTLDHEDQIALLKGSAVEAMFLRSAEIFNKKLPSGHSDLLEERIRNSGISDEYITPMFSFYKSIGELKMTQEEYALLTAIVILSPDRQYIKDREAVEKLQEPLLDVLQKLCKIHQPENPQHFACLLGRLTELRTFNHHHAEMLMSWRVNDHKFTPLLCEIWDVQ
The assay can be described thus: transient human FXR/Gal4-luciferase reporter assay. As to conditions: Gal4-hFXR LBD fusion, luciferase reporter in HEK293 cells; response relative to 8 μM GW-4064. The class given is cell-based. The method in brief: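 HEK293 cells stably carrying a 5×Gal4-response-element firefly luciferase reporter were transiently transfected with Gal4-hFXR. They were then incubated overnight at 37 °C with compound serial dilutions in medium containing 10% charcoal/dextran-stripped FBS. Luminescence was read after Steady-Glo addition.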
As for `CC(C)(C)c1noc(C23CCC(CN(C(=O)C4CCS(=O)(=O)CC4)c4cccc(-c5cc(C6CC6)on5)c4)(CC2)CC3)n1` [Example 160, N-((4-(3-(tert-butyl)-1,2,4-oxadiazol-5-yl)bicyclo[2.2.2]octan-1-yl)methyl)-N-(3-(5-cyclopropylisoxazol-3-yl)phenyl)tetrahydro-2H-thiopyran-4-carboxamide 1,1-dioxide], it took 701 nM to reach a half-maximal effect (EC50).

`CC(C)(C)c1noc(C23CCC(CN(C(=O)C4CCOCC4)c4cccc(-c5cc(C6CC6)on5)c4)(CC2)CC3)n1` [Example 161, N-((4-(3-(tert-butyl)-1,2,4-oxadiazol-5-yl)bicyclo[2.2.2]octan-1-yl)methyl)-N-(3-(5-cyclopropylisoxazol-3-yl)phenyl)tetrahydro-2H-pyran-4-carboxamide] gave an EC50 of 77 nM.

For the compound `CC(C)(C)c1nc(C23CCC(CN(C(=O)C4CCC(F)(F)CC4)c4cccc(-c5cc(C6CC6)on5)c4)(CC2)CC3)no1` [Example 162, N-((4-(5-(tert-butyl)-1,2,4-oxadiazol-3-yl)bicyclo[2.2.2]octan-1-yl)methyl)-N-(3-(5-cyclopropylisoxazol-3-yl)phenyl)-4,4-difluorocyclohexane-1-carboxamide], the EC50 came to 41 nM. This EC50 lies about 1.9-fold lower than the previous one.

In the case of `Cn1nc(C2CC2)cc1C12CCC(CN(C(=O)C3CCC(F)(F)CC3)c3cccc(-c4cc(C5CC5)on4)c3)(CC1)CC2` [Example 163, N-((4-(3-cyclopropyl-1-methyl-1H-pyrazol-5-yl)bicyclo[2.2.2]octan-1-yl)methyl)-N-(3-(5-cyclopropylisoxazol-3-yl)phenyl)-4,4-difluorocyclohexane-1-carboxamide], a half-maximal effect (EC50) was put at 130 nM.

Take `CCOc1ccc(-c2cc(N(CC34CCC(c5nc(C(C)(C)C)no5)(CC3)CC4)C(=O)C3CCC(C)(O)CC3)ccc2F)cc1` (centres unmarked) [Example 166, N-((4-(3-(tert-butyl)-1,2,4-oxadiazol-5-yl)bicyclo[2.2.2]octan-1-yl)methyl)-N-(4′-ethoxy-6-fluoro-[1,1′-biphenyl]-3-yl)-4-hydroxy-4-methylcyclohexane-1-carboxamide]: the EC50 stood at 1080 nM.
